In patent publication US6277886A (priority 1996, dated 2001):
Structures can show the parent of a compound that is named as a salt. Where two headings read alike, the source gives them in different places.

Assays:
ICR male mice = test: Hypobaric hypoxia model, survival time of mice at 200 mmHg; type: in vivo; details: control = 100
Text: The model used is analogous to the one described by M. Nakanishi et al., Life Sci. 13: 467-476 (1973); and by Y'Oshiro et al., J. Med. Chem. 34: 2014-2023 (1991). A group of 4 ICR male mice each weighing 20-25 g were placed in a 2.5 L glass chamber (A) at atmospheric pressure. Chamber A is connected to a 12 L chamber (B) through a valve which is initially […] closed. The air in chamber B was evacuated to a pressure of 100 mmHg. The valve between the two chambers was opened rapidly, whereupon the pressure in chamber A fell within 14 seconds to 200 mmHg. The survival time of the mice in chamber A was determined to a maximum hypobaric exposure of 15 minutes. Effect of drug pretreatment on survival is calculated as the percent of the survivai time of the drug-treated group as compared to saline-injected or vehicle-injected group. Control groups were tested twice, before and after each experiment and consisted of 12 to 16 mice, 4 per group. Each tested group always consisted of 4 mice in order to ensure a constant residual volume of oxygen in all tests. […] The effect of each dose of the test drug was determined in duplicate, using a total of 8 mice, 4 per group. All drugs were administered i.p. one hour prior to hypoxia. Positive reference drugs were sodium pentobarbital at a dose of 40 mg/kg, or diazepam at a dose of 10 mg.kg, given 0.5 hour prior to hypoxia.

MAO-A = MAO-A (Rattus norvegicus, UniProt P21396); test: in vivo; details: for ED50: rat, read-out: IC-50 for Inhibition of MAO-A
Procedure: (§1) Rats (male Sprague-Dawley-derived) weighing 250±20 g were treated with one of the enantionmers or the racemic form of PAI by intraperitoneal injection (ip) or oral gavage (po), and decapitated 1h or 2h later respectively. Groups of three rates were used for each dose level of substance, and MAO activity determined in brain and liver using the general technique described in Example 19 of U.S. Pat. No. 5,387,612. The amount of protein in each incubation was determined using the Follin-Lowrymethod, and enzyme activity calculated as nmol of substrate metabolized per hour of incubation for each mg of protein. Activity of MAO in tissues from animals treated with the enantiomers or the racemic form of PAI was expressed as a percentage of the enzyme activity in a group of control animals administered vehicle (water for oral administration, 0.9% saline for ip injection).

MAO-B [1] = target: MAO-B (Rattus norvegicus, UniProt P19643); test: in vivo; details: for activity for inhibition of MAO-B: in words; for ED50: rat
Procedure: as §1

[2] = tested on: male Wistar rats after middle cerebral artery occlusion (MCA-O)
Text: In order to expose the left middle cerebral artery, a cut was made in the temporal muscle. The tip of the coronoid process of mandible was excised as well and removed with a fine rongeur. Craniectomy was made with a dental drill at the junction between the median wall and the roof of the inferotemporal fossa.
The dura matter was opened carefully using a 27 gauge needle. […] Following this, the temporalis muscle was sutured and laid over the craniectomy site. The skin was closed with a running 3-0 silk suture. […] The volume of brain tissue incurring damage following ischemia was determined.

MAO-B [3] = details: in vitro; cited from earlier work
MAO-A/MAO-B = details: in vitro; cited from earlier work
rat cerebellum cells = details: in words; cited from earlier work
rat optic nerve = details: in words; cited from earlier work
[4] = tested on: reserpine induced ptosis in rats; test: Reserpine-induced ptosis in rats; type: in vivo; details: reserpine 5 mg/kg i.p., 0-4 scale, 4 = eyes completely open, saline 0.86
Text: Reserpine-induced ptosis and its reversal test. Reserpine causes depletion of catecholamine stores, especially norepinephrine. This effect in the live animal is manifested among other things, in ptosis. Drugs that can prevent or inhibit reserpine-induced ptosis act either directly as noradrenergic agonists, or indirectly by decreasing or preventing the metabolic elimination of endogenous norepinephrine. MAO inhibitors belong to the latter category.

nerve cell death = details: sub-inhibitory levels; in words; cited from earlier work
[5] = tested on: noradrenaline depletion in rodents; details: in words; cited from earlier work
human subjects = details: cited from earlier work
noradrenaline uptake = details: in words; cited from earlier work
[6] = tested on: pressor response to catecholamines in the cat; test: Pressor response to catecholamines in the anesthetized cat before and after S(-)PAI; type: in vivo; details: before S(-)PAI
Procedure: Cats were anesthetized with i.v. nembutal 25 mg/kg. Anesthesia was maintained by additional injections of nembutal, 5 mg/kg, as needed. The femoral artery was cannulated and connected to a Statham pressure transducer for blood pressure recordings on a Grass multichannel Polygraph. The femoral vein was cannulated for i.v. injection of drugs.

[7] = po liver, 2 h after oral gavage
[8] = 10 mg/kg i.p., one hour prior to hypoxia
[9] = 50 mg/kg i.p., one hour prior to hypoxia
[10] = 100 mg/kg i.p., one hour prior to hypoxia

Chain of MAO-A (P21396 whole entry): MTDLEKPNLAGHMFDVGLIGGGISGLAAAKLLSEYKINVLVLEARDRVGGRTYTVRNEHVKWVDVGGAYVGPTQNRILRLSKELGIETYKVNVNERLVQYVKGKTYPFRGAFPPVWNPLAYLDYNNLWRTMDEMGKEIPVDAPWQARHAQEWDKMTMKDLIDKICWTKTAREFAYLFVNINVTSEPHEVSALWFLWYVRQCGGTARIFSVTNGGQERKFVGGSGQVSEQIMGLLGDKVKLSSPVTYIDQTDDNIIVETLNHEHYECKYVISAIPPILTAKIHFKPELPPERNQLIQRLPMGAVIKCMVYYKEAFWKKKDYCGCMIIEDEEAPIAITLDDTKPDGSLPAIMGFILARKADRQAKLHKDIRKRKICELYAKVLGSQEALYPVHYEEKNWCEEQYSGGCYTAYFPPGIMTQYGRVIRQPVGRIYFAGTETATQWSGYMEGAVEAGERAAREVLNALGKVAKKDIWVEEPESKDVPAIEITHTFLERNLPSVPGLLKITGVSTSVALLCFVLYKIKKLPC
Chain of MAO-B (Rattus norvegicus, UniProt P19643) (P19643 whole entry): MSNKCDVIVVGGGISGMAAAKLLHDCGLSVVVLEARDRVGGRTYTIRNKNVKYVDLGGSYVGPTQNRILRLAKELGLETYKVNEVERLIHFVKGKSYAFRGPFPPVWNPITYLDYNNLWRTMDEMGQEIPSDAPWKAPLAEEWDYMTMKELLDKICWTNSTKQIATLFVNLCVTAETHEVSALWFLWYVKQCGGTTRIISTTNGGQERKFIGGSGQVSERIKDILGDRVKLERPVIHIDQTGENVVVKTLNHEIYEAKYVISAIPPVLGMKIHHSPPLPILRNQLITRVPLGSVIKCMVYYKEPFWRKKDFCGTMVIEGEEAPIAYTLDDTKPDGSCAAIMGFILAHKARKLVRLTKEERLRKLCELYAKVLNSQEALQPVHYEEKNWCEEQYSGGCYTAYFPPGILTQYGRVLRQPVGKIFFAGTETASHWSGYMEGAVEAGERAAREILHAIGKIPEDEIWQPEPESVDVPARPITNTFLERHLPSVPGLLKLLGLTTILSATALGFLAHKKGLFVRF

In the case of `CN1C(=O)CN=C(c2ccccc2)c2cc(Cl)ccc21` [Diazepam], the “% protection ± SD relative to control (relative survival time)” value (from here on “% protection ± SD relative to control”) (ICR male mice; 10 mg/kg i.p., 0.5 hour prior to hypoxia) was 430 ± 59%.
For `CCCC(C)C1(CC)C(=O)NC(=O)NC1=O` (stereo not shown) [Pentobarbital], the “% protection ± SD relative to control” value (ICR male mice; 20 mg/kg i.p., 0.5 hour prior to hypoxia) was 325 ± 166%.
With `C#CCN[C@@H]1CCc2ccccc21` [R(+)PAI mesylate, reference compound] the “IC-50 for Inhibition of MAO-A” value (MAO-A; [7]) was over 5 mg/kg, the ED50 (MAO-A; po, 2 h) was over 5 mg/kg and the “activity for inhibition of MAO-B” value (MAO-B [1]) was “selectivity”. The “% protection ± SD relative to control” value (ICR male mice; [8]) was 116 ± 47%, the “% protection ± SD relative to control” value (ICR male mice; [9]) was 410 ± 151% and the “% protection ± SD relative to control” value (ICR male mice; [10]) was 358 ± 179%.
For `C#CCN[C@@H]1CCc2ccccc21` [R(+)PAI, R(+) enantiomer of N-propargyl-1-aminoindan], the “improvement in neurological score severity” value [2] is given as about 20%, the “activity as inhibitor of MAO-B relative to S(-)PAI” value (MAO-B [3]) is given as ~7,000 times more active and the “selectivity for MAO-B than MAO-A” value (MAO-A/MAO-B) is given as “more than 29 times more selective”. For the same molecule, the “prevention of NMDA induced cell death” value (rat cerebellum cells) was “active as a "neuroprotective agent"” and the “slowing neuronal degeneration after crushing the rat optic nerve” value (rat optic nerve) was “slowing neuronal degeneration”.
For `C#CCN(C)[C@H](C)Cc1ccccc1` [R(-)Deprenyl], the “Mean score of reserpine-induced ptosis” value ([4]; 5 mg/kg i.p.) is given as 1.3, the “Mean score of reserpine-induced ptosis” value ([4]; 10 mg/kg i.p.) is given as 3.16 and the “prevention of nerve cell death” value (nerve cell death) is given as “prevent nerve cell death”. The “neuroprotective activity (percent restoration of noradrenaline after DSP-4)” value [5] was “displayed "neuroprotective activity"”, the “dose at which cardiovascular function could be compromised” value (human subjects; human subjects, daily dose, recommended dose 10 mg) was 30 to 40 mg and the “safety factor in clinical practice” value (human subjects; human) was 3 to 4.
In the case of `C#CCN(C)[C@@H](C)Cc1ccccc1` [S(+) deprenyl], the “neuroprotective activity (percent restoration of noradrenaline after DSP-4)” value [5] is given as “far lower "neuroprotective activity" in comparison with R(-) deprenyl” and the “noradrenaline uptake inhibition compared to R(-) deprenyl” value (noradrenaline uptake) is given as “superior noradrenaline uptake inhibitor as compared to R(-) deprenyl”.
For `C#CCN[C@H]1CCc2ccccc21` [S(-)PAI mesylate, S-(-)-N-Propargyl-1-aminoindan mesylate], the “activity for inhibition of MAO-A” value (MAO-A; in words) was “extremely low activity”, the “IC-50 for Inhibition of MAO-A” value (MAO-A; ip liver, 1 h after ip injection) was over 10 mg/kg and the “IC-50 for Inhibition of MAO-A” value (MAO-A; [7]) was over 10 mg/kg. The ED50 (MAO-A; ip, 1 h) was over 10 mg/kg, the ED50 (MAO-A; po, 2 h) was over 10 mg/kg and the “activity for inhibition of MAO-B” value (MAO-B [1]) was “extremely low activity”. It also gave an ED50 (MAO-B [1]; ip, 1 h, read-out: IC-50 for Inhibition of MAO-B, ip brain, 1 h after ip injection) of over 10 mg/kg, an ED50 (MAO-B [1]; ip, 1 h, read-out: IC-50 for Inhibition of MAO-B, ip liver, 1 h after ip injection) of over 10 mg/kg and an ED50 (MAO-B [1]; po, 2 h, read-out: IC-50 for Inhibition of MAO-B, po brain, 2 h after oral gavage) of over 10 mg/kg. The ED50 (MAO-B [1]; po, 2 h, read-out: IC-50 for Inhibition of MAO-B, po liver, 2 h after oral gavage) was over 10 mg/kg, the “% protection ± SD relative to control” value (ICR male mice; [8]) was 84 ± 47% and the “% protection ± SD relative to control” value (ICR male mice; [9]) was 406 ± 247%. For the same molecule, the “% protection ± SD relative to control” value (ICR male mice; [10]) was 390 ± 197%.
For `NC[C@H](O)c1ccc(O)c(O)c1` [norepinephrine, reference compound], the “Δ mean arterial pressure before S(-)PAI” value ([6]; 0.02 μg/kg i.v.) was 8 mmHg, the “Δ mean arterial pressure before S(-)PAI” value ([6]; 0.05 μg/kg i.v.) was 23 mmHg and the “Δ mean arterial pressure before S(-)PAI” value ([6]; 0.10 μg/kg i.v.) was 31 mmHg. The “Δ mean arterial pressure before S(-)PAI” value ([6]; 0.20 μg/kg i.v.) was 46 mmHg.
With `CNC[C@H](O)c1cccc(O)c1` [phenylephrine, reference compound] the “Δ mean arterial pressure before S(-)PAI” value ([6]; 0.20 μg/kg i.v.) was 9 mmHg, the “Δ mean arterial pressure before S(-)PAI” value ([6]; 0.50 μg/kg i.v.) was 17 mmHg and the “Δ mean arterial pressure before S(-)PAI” value ([6]; 1.0 μg/kg i.v.) was 21 mmHg. The “Δ mean arterial pressure before S(-)PAI” value ([6]; 2.0 μg/kg i.v.) was 40 mmHg.
With `NCCc1ccc(O)cc1` [tyramine, reference compound] the “Δ mean arterial pressure before S(-)PAI” value ([6]; 2.0 μg/kg i.v.) was 11 mmHg, the “Δ mean arterial pressure before S(-)PAI” value ([6]; 5.0 μg/kg i.v.) was 19 mmHg and the “Δ mean arterial pressure before S(-)PAI” value ([6]; 10.0 μg/kg i.v.) was 26 mmHg. The “Δ mean arterial pressure before S(-)PAI” value ([6]; 20.0 μg/kg i.v.) was 42 mmHg.
